A value given as a limit tells only on which side of the number the result lay.

23 compounds from ChEMBL document CHEMBL1150495, “Balanced angiotensin II receptor antagonists. I. The effects of biphenyl ortho-substitution on AT1/AT2 affinities” (Bioorg Med Chem Lett, 1994) can be followed below.

The target in experiment [1] is T1, Type-2 angiotensin II receptor (Rattus norvegicus, UniProt P35351).
T1 sequence (P35351 whole entry): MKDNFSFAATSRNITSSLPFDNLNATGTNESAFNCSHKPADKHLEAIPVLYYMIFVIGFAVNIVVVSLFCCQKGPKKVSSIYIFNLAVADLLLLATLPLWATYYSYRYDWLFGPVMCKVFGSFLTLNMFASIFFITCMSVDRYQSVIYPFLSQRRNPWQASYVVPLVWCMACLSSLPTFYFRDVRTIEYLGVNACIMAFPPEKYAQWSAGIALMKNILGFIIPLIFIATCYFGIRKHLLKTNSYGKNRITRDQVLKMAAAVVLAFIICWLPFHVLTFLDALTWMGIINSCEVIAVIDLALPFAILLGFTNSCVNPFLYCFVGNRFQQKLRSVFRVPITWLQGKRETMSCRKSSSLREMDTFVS
Description: Displacement of [125I]- Ang II from angiotensin II AT2 receptor in rat adrenal cortical microsomes. Further details: species or system Microsome.

Experiment [2] addresses T2, Angiotensin II receptor (AT-1) type-1 (Rattus norvegicus, UniProt P29089+P25095).
T2 sequence (P29089 whole entry): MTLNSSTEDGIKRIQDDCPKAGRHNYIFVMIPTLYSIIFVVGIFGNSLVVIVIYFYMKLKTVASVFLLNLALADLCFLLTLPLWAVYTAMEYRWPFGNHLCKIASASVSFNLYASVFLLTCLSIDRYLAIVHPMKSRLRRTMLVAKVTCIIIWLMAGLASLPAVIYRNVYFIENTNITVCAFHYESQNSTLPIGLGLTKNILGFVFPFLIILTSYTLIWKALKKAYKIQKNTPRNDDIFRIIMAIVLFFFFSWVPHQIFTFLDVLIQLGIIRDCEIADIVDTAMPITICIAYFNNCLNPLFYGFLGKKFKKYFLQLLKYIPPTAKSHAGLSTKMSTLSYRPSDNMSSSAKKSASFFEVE
T2 sequence (P25095 whole entry): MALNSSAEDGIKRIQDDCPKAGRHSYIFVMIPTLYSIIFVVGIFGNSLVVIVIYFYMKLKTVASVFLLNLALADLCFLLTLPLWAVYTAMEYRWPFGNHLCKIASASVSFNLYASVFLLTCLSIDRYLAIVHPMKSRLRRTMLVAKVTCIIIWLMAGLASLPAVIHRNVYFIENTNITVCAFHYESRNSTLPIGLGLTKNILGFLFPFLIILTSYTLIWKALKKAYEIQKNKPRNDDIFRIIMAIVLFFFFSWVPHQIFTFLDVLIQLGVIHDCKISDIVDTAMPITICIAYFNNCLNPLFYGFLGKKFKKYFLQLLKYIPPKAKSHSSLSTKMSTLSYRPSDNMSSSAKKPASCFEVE
Description: Displacement of [125I]- Ang II from angiotensin II AT1 receptor in rat adrenal cortical microsomes. Further details: species or system Microsome. A general note: Loss of bound radioactivity is the signal in a displacement assay; it reports binding, not function.

The test system of experiment [3] is Rattus norvegicus. Description: Reduction of blood pressure by 30 mmHg in renal hypertensive rats by intravenous administration. The format is functional.
The test system of experiment [4] is Rattus norvegicus. The experiment can be described thus: Effective dose to lower blood pressure by 30 mmHg in renal hypertensive rats by peroral administration. The format is functional. Conditions: po.
Experiment [5] relates to Rattus norvegicus. Description: Duration required to lower blood pressure by 30 mmHg in renal hypertensive rats at a dose of 3.0 mg/kg. The format is functional.
The target in experiment [6] is Angiotensin II receptor (Homo sapiens) (UniProt P30556+P50052). Description: Affinity towards angiotensin receptor was expressed as the ratio of Angiotensin II AT2 receptor over Angiotensin II AT1 receptor. It counts as protein assay.
For experiment [7], the target named is T1, Type-2 angiotensin II receptor. Description: Compound was tested for the inhibition of angiotensin II AT2 receptor by displacement of [125I]- Ang II to rat adrenal cortical microsomes.

`CCCCOC(=O)NS(=O)(=O)c1ccccc1-c1ccc(Cn2c(CCC)nc(CC)c2C(C)=O)c(Cl)c1`: the IC50 (commonly the concentration at which inhibition is half-maximal) in experiment [1] was found to be 12 nM; in experiment [2], 6 nM. Besides, the results for the ED30 in the experiment with Rattus norvegicus [3] and with Rattus norvegicus [4] were 0.11 mg/kg and 0.96 mg/kg, respectively.
With `CCCCOC(=O)NS(=O)(=O)c1ccccc1-c1ccc(Cn2c(CCC)nc(CC)c2C(=O)OC)c(Br)c1`, the half-maximal inhibitory concentration (IC50) in experiment [1] was found to be 20 nM; in experiment [2], 2 nM.
As to `CCCCOC(=O)NS(=O)(=O)c1ccccc1-c1ccc(Cn2c(CCC)nc(CC)c2C=O)c(C)c1`, the IC50 in experiment [1] is 9 nM; in experiment [2] it was 3 nM. For the same compound, the ED30 came to 0.23 mg/kg with Rattus norvegicus [3] and 0.86 mg/kg in the experiment with Rattus norvegicus [4].
As for `CCCc1nc(CC)c(C=O)n1Cc1ccc(-c2ccccc2-c2nn[nH]n2)cc1`, the half-maximal inhibitory concentration (IC50) was greater than 10000 nM in experiment [1] and 2 nM in experiment [2]. The ED30 in the experiment on Rattus norvegicus [3] is 0.04 mg/kg.
In the case of `CCCc1nc(CC)c(C=O)n1Cc1ccc(-c2ccccc2-c2nn[nH]n2)cc1Br`, the half-inhibitory concentration (IC50) is 700 nM in experiment [1] and 20 nM in experiment [2]. Also, in the experiment with Rattus norvegicus [3], the ED30 was determined as 1.05 mg/kg.
With `CCCCOC(=O)NS(=O)(=O)c1ccccc1-c1ccc(Cn2c(CCC)nc(CC)c2C(=O)OC)c(C)c1`, the results for the IC50 in experiment [1] and in experiment [2] were 10 nM and 3 nM, respectively. For the same compound, the ED30 in the experiment on Rattus norvegicus [3] was 0.15 mg/kg; in the experiment with Rattus norvegicus [4], 0.56 mg/kg.
Turning to `CCCc1nc(CC)c(C(=O)OC)n1Cc1ccc(-c2ccccc2S(=O)(=O)NC(=O)OCCC(C)C)cc1F`, in experiment [1], the IC50 is 1 nM. In the experiment with Rattus norvegicus [5], this compound showed a Duration greater than 24 h. Moreover, the results for the ED30 with Rattus norvegicus [3] and in the experiment on Rattus norvegicus [4] were 0.12 mg/kg and 0.67 mg/kg, respectively. In experiment [6], the Ratio was 1.
As to `CCCCOC(=O)NS(=O)(=O)c1ccccc1-c1ccc(Cn2c(CCC)nc(CC)c2C(=O)OC)c([N+](=O)[O-])c1`, the half-maximal inhibitory concentration (IC50) in experiment [1] was 20 nM; in experiment [2], 7 nM.
`CCCc1nc(C(F)(F)C(F)(F)F)c(C(=O)O)n1Cc1ccc(-c2ccccc2-c2nn[nH]n2)cc1Br` gave a concentration for half-maximal inhibition (IC50) in experiment [7] of 80 nM.
Consider `CCCCOC(=O)NS(=O)(=O)c1ccccc1-c1ccc(Cn2c(CCC)nc(CC)c2C(C)=O)cc1`, for which the half-inhibitory concentration (IC50) is 80 nM in experiment [1] and 2 nM in experiment [2]. Further, the values for the ED30 in the experiment on Rattus norvegicus [3] and with Rattus norvegicus [4] were 0.26 mg/kg and 0.25 mg/kg, respectively.
`CCCc1nc(CC)c(C=O)n1Cc1ccc(-c2ccccc2-c2nn[nH]n2)cc1C`: the IC50 came to 1000 nM in experiment [1] and 40 nM in experiment [2]. Further, the ED30 with Rattus norvegicus [3] came out at 1.4 mg/kg.
For the compound `CCCCOC(=O)NS(=O)(=O)c1ccccc1-c1ccc(Cn2c(CCC)nc(CC)c2C(=O)OC)c(Cl)c1`, the half-maximal inhibitory concentration (IC50) in experiment [1] worked out at 7 nM. Moreover, in the experiment on Rattus norvegicus [5], the Duration is greater than 24 h. Moreover, the ED30 with Rattus norvegicus [3] worked out at 0.51 mg/kg; with Rattus norvegicus [4], 0.44 mg/kg. Also, in experiment [6], the Ratio came out at 2.3.
For `CCCCOC(=O)NS(=O)(=O)c1ccccc1-c1ccc(Cn2c(CCC)nc(CC)c2C=O)c(F)c1`, the IC50 amounted to 2 nM in experiment [1] and 0.7 nM in experiment [2]. In addition, the ED30 with Rattus norvegicus [3] was 0.13 mg/kg; in the experiment on Rattus norvegicus [4], less than 1 mg/kg.
Turning to `CCCNC(=O)NS(=O)(=O)c1ccccc1-c1ccc(Cn2c(CCC)nc(SC)c2C(=O)O)cc1`, the IC50 in experiment [1] stood at 775 nM; in experiment [2], 0.3 nM.
In turn, `CCCCOC(=O)NS(=O)(=O)c1ccccc1-c1ccc(Cn2c(CCC)nc(CC)c2C(C)=O)c(F)c1` registered a concentration for half-maximal inhibition (IC50) in experiment [1] of 3 nM. In addition, in the experiment on Rattus norvegicus [5], the Duration was greater than 24 h. In addition, the ED30 in the experiment on Rattus norvegicus [3] came to 0.1 mg/kg; with Rattus norvegicus [4] it was 0.48 mg/kg. Moreover, the Ratio in experiment [6] amounted to 3.
With `CCCc1nc(CC)c(C=O)n1Cc1ccc(-c2ccccc2-c2nn[nH]n2)cc1Cl`, the IC50 in experiment [1] worked out at 500 nM; in experiment [2], 10 nM. The ED30 in the experiment with Rattus norvegicus [3] is 0.87 mg/kg.
As for `CCCc1nc(C(F)(F)C(F)(F)F)c(C(=O)O)n1Cc1ccc(-c2ccccc2-c2nn[nH]n2)cc1`, the 50% inhibitory concentration (IC50) in experiment [1] is greater than 10000 nM; in experiment [2], 3 nM.
Consider `CCCCOC(=O)NS(=O)(=O)c1ccccc1-c1ccc(Cn2c(CCC)nc(CC)c2C=O)cc1`, for which the values for the concentration for half-maximal inhibition (IC50) in experiment [1] and in experiment [2] were 10 nM and 2 nM, respectively. Moreover, the ED30 is 0.23 mg/kg in the experiment with Rattus norvegicus [3] and 0.18 mg/kg in the experiment with Rattus norvegicus [4].
As for `CCCc1nc(CC)c(C=O)n1Cc1ccc(-c2ccccc2-c2nn[nH]n2)cc1F`, the IC50 stood at 3000 nM in experiment [1] and 7 nM in experiment [2]. Besides, the ED30 in the experiment with Rattus norvegicus [3] was found to be 0.17 mg/kg.
For `CCCc1nc(CC)c(C=O)n1Cc1ccc(-c2ccccc2S(=O)(=O)NC(=O)c2ccccc2)cc1`, the IC50 was determined as 500 nM in experiment [1] and 2.4 nM in experiment [2].
For the compound `CCCCOC(=O)NS(=O)(=O)c1ccccc1-c1ccc(Cn2c(CCC)nc(CC)c2C(=O)OC)c(F)c1`, the IC50 stood at 4 nM in experiment [1] and 0.6 nM in experiment [2]. Moreover, the ED30 is 0.11 mg/kg in the experiment on Rattus norvegicus [3] and less than 0.3 mg/kg in the experiment on Rattus norvegicus [4].
In the case of `CCCCOC(=O)NS(=O)(=O)c1ccccc1-c1ccc(Cn2c(CCC)nc(CC)c2C(=O)OC)cc1`, the figures for the concentration for half-maximal inhibition (IC50) in experiment [1] and in experiment [2] were 40 nM and 2 nM, respectively.
Regarding `CCCCOC(=O)NS(=O)(=O)c1ccccc1-c1ccc(Cn2c(CCC)nc(CC)c2C(C)=O)c(C)c1`, the IC50 in experiment [1] came to 20 nM; in experiment [2], 2 nM. For the same compound, the ED30 amounted to 0.24 mg/kg in the experiment on Rattus norvegicus [3] and 0.55 mg/kg in the experiment with Rattus norvegicus [4].
